In PMC4761938 (2016):
Blank lines part the entries; values can stand above or below the compound they belong to.

Tests used:
Experiment in all cases: graphene oxide fluorescence desorption assay
[1] = tested on: OA-27 (DNA, aptamer) CAGCTCAGAAGCTTGATCCTATTTGACCATGTCGAGGGAGACGCGCAGTCGCTACCACCTGACTCGAAGTCGTGCATCTG; details: 150 mM Na+, 2 mM Mg2+, binding buffer 50 mM Tris, pH 7.4; for binding: 1 μM compound tested, 150 nM aptamer
[2] = tested on: OA-08 (DNA, aptamer) CAGCTCAGAAGCTTGATCCTAGCCCGCCAACCTACATCATCTACACTTCGTTTTAACCTTGACTCGAAGTCGTGCATCTG; details: 150 mM Na+, 2 mM Mg2+, binding buffer 50 mM Tris, pH 7.4; for binding: 1 μM compound tested, 150 nM aptamer
[3] = tested on: OA-17 (DNA, aptamer) CAGCTCAGAAGCTTGATCCTTTCCCCAAACTGTTGCAACCTCTGCTTTCTTTCGCTATATGACTCGAAGTCGTGCATCTG; details: 150 mM Na+, 2 mM Mg2+, binding buffer 50 mM Tris, pH 7.4; for binding: 1 μM compound tested, 150 nM aptamer
[4] = tested on: OA-21 (DNA, aptamer) CAGCTCAGAAGCTTGATCCTGGATGACCGTTGCAAGCGATCCATTGTTGTTTGATCATGTGACTCGAAGTCGTGCATCTG; details: 150 mM Na+, 2 mM Mg2+; binding buffer 50 mM Tris, pH 7.4; 1 μM OA, 5–200 nM aptamer
[5] = tested on: OA-01 (DNA, aptamer) CAGCTCAGAAGCTTGATCCTGCACACGAGTTACGCCCCATCGTTGTCCTTTCCCTCACGTGACTCGAAGTCGTGCATCTG; details: 150 mM Na+, 2 mM Mg2+; binding buffer 50 mM Tris, pH 7.4; 1 μM OA, 5–200 nM aptamer
[6] = tested on: OA-09 (DNA, aptamer) CAGCTCAGAAGCTTGATCCTTAGCACACAACCCTTTGATTGGGATATCTCATCCCTCGGACTCGAAGTCGTGCATCTG; details: 150 mM Na+, 2 mM Mg2+; binding buffer 50 mM Tris, pH 7.4; 1 μM OA, 5–200 nM aptamer
[7] = tested on: OA-22 (DNA, aptamer) CAGCTCAGAAGCTTGATCCTGGCCCCGATATGATTGCTATCATTCGCATCTGCTTCACTTGACTCGAAGTCGTGCATCTG; details: 150 mM Na+, 2 mM Mg2+; binding buffer 50 mM Tris, pH 7.4; 1 μM OA, 5–200 nM aptamer
[8] = tested on: OA27-1 (DNA, aptamer) ATTTGACCATGTCGAGGGAGACGCGCAGTCGCTACCACCT; details: 150 mM Na+, 2 mM Mg2+; binding buffer 50 mM Tris, pH 7.4; FAM-aptamer, GO separation
[9] = tested on: OA-14 (DNA, aptamer) CAGCTCAGAAGCTTGATCCTATGCTTCGTGGGACAAGAGTTGACACATCGTCGTTAGGTTGACTCGAAGTCGTGCATCTG; details: 150 mM Na+, 2 mM Mg2+; binding buffer 50 mM Tris, pH 7.4; 1 μM OA, 5–200 nM aptamer

- binding [1]: no
SMILES: C/C(=C/C=C/[C@@H](C)C(=O)O)[C@H]1CN[C@H](C(=O)O)[C@H]1CC(=O)O

- binding [2]: yes
- binding [3]: yes
- binding [1]: no
SMILES: C=C1[C@@H](O)[C@@H]2O[C@]3(CC[C@H](/C=C/[C@@H](C)[C@@H]4CC(C)=C[C@@]5(O[C@H](C[C@@](C)(O)C(=O)O)CC[C@H]5O)O4)O3)CC[C@H]2O[C@@H]1[C@@H](O)C[C@H](C)[C@@H]1CCC[C@@]2(OCCC[C@H]2C)O1

- Kd [4]: 118 ± 18 nM
- Kd ([2]; 1 μM OA, 5–200 nM aptamer): 88 ± 30 nM
- Kd [5]: 125 ± 22 nM
- Kd [6]: 127 ± 39 nM
- Kd ([3]; 1 μM OA, 5–200 nM aptamer): 79 ± 20 nM
- Kd ([1]; 1 μM OA, 5–200 nM aptamer): 42 ± 4 nM
- Kd [7]: 70 ± 16 nM
- Kd [8]: 40 nM
- Kd [9]: 1772 ± 543 nM
SMILES: C=C1[C@@H](O)[C@@H]2O[C@]3(CC[C@H](/C=C/[C@@H](C)[C@@H]4CC(C)=C[C@@]5(O[C@H](C[C@@](C)(O)C(=O)O)CC[C@H]5O)O4)O3)CC[C@H]2O[C@@H]1[C@@H](O)C[C@H](C)[C@H]1O[C@@]2(CCCCO2)CC[C@H]1C

- binding [2]: yes
- binding [3]: yes
- binding [1]: no
SMILES: C=C1[C@@H](O)[C@@H]2O[C@]3(CC[C@H](/C=C/[C@@H](C)[C@@H]4CC(C)=C[C@@]5(O[C@H](C[C@@](C)(O)C(=O)O)CC[C@H]5O)O4)O3)CC[C@H]2O[C@@H]1[C@@H](O)C[C@H](C)[C@H]1O[C@@]2(CC[C@H]1C)OCCC[C@H]2C
